From patent US9328123B2, “Rotenone derivatives and a use thereof” (priority 2012, dated 2016)

Key:
pig pancreatic lipase = pig pancreatic lipase (Sus scrofa (Pig), UniProt P00591); assay: Pancreatic lipase inhibiting activity (p-nitrophenylbutyrate hydrolysis); assay type: biochemical
Procedure: To investigate obesity treating effect of the novel rotenoisin A and B, each represented by formula 2 and formula 3 isolated and purified in <Example 2>, pancreatic lipase inhibiting activity of the same was measured.
Particularly, pancreatic lipase inhibiting activity was measured by the conventional method known to those in the art (Kim, J. H.; Kim, H. J.; Park, H. W.; Youn, S. H.; Choi, D. Y.; Shin, C. S. FEMS Microbiol. Lett. 2007, 276, 93.). To prepare the enzyme buffer, […] (10 units) of pig pancreatic lipase solution (Sigma, St. Louis, Mo.) and 1 mM EDTA (pH 6.8) were mixed with 10 mM MOPS (morpholinepropanesulphonic acid), which was added to […] of tris buffer (100 mM Tris-HCl and 5 mM CaCl2, pH 7.0). Then, […] of the rotenoisin A or B of the present invention was mixed with the prepared enzyme buffer at the experimental concentration. […] 20 mL of substrate solution containing 20 mM p-nitrophenylbutyrate dissolved in dimethyl formaide was added to the enzyme buffer, followed by culture for 15 minutes at 37° C. that was the temperature adequate for enzyme reaction. Pancreatic lipase activity was measured by measuring the hydrolysis of p-nitrophenylbutyrate into p-nitrophenol using an ELISA reader (Infinite F200; Tecan Austria GmBH, Grodig, Austria).

3T3-L1 preadipocytes = assay: Inhibition of differentiation of 3T3-L1 preadipocyte to adipocyte (oil red O staining); assay type: cell-based, mouse; details: 3T3-L1 cell line, concentration of 2 μM
Procedure: To investigate inhibition effect on adipocyte differentiation in 3T3-L1 preadipocytes, mouse embryo fibroblasts were cultured in DMEM supplemented with 10% FBS to confluency. Two days later (Day 0), the cells were stimulated for the differentiation in DMEM, the differentiation medium supplemented with 10% FBS, 0.5 mM 3-isobutyl-1-methyl-xanthine, […], and […] (Day 2). For the next 6 days, the cells were cultured in DMEM supplemented with 10% FBS and 2 mM insulin (Day 8), followed by further culture in DMEM supplemented with 10% FBS for […] (Day 8). Every medium was added with 100 IU/ml of penicillin and […] of streptomycin. The cells were cultured in the presence of 95% air and 5% CO2. During the whole culture period (Day 0˜Day 8), the treatment of the rotenoisin A and B (2, 0.2, 0.02 uM) of the present invention was performed by the conventional method known to those in the art (Liu, Q.; Shin, E.; Ahn, M. J.; Hwang, B. Y.; Lee, M. K. Nat. Prod. Sci. 2011, 17, 212.) with slight modification. […]
Particularly, intracellular fat lump was stained with oil red O. 8 days after the induction of cell differentiation, the cells were washed with […] twice, followed by fixing in 10% formalin for 1 hour at room temperature. […] For quantitative analysis, oil red O was dissolved with isopropyl alcohol, followed by measuring OD500 using an ELISA reader.

Sequence of pig pancreatic lipase (P00591 whole entry): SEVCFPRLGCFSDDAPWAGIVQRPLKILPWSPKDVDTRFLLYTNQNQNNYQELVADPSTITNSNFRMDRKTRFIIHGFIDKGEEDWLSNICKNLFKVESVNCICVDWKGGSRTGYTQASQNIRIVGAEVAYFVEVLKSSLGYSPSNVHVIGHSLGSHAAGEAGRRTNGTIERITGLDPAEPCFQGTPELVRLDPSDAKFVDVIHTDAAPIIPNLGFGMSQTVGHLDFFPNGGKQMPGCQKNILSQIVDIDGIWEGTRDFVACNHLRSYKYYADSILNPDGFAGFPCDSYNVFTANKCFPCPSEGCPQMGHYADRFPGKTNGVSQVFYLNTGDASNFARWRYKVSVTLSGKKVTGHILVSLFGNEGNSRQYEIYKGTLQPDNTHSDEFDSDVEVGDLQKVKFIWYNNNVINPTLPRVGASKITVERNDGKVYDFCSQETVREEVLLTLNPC

Structure (SMILES)	IC50 (pig pancreatic lipase)	adipocyte differentiation inhibiting activity (3T3-L1 preadipocytes; Day 8)	inhibition at 2 µM (3T3-L1 preadipocytes; Mus musculus, 192 h, Day 8, read-out: adipocyte differentiation inhibiting activity)
C=C(C)[C@H]1Cc2c(ccc3c2O[C@@H]2COc4cc(OC)c(OC)cc4[C@@H]2C32CO2)O1 (some centres unmarked) [rotenoisin A]	6.3 ± 0.3 µM	approximately 70%	~70%
C=C(C)[C@H]1Cc2c(ccc3c2O[C@@H]2COc4cc(OC)c(OC)cc4[C@@H]2[C@]32CC3O[C@]3(O)[C@@H](O)O2)O1 (some centres unmarked) [rotenoisin B]	28.4 ± 1.2 µM	–	–
C=C(C)[C@H]1Cc2c(ccc3c2O[C@@H]2COc4cc(OC)c(OC)cc4[C@@H]2C3=O)O1 [rotenone]	> 500 µM	–	–
